Experimental findings from US7432089B2, “DNA encoding favin-adenine-dinucleotide-dependent-D-erythronate-4-phosphate-de-hydrogenase, pdxR, and microbial production of vitamin B6” (DSM IP Assets B.V., priority 2002, dated 2008) are described below.

One assay relates to PdxR. Briefly: Substrate specificity of PdxR (DCIP reduction, A600). Type of assay: biochemical, S. meliloti. As to the method: Substrate specificity of PdxR was examined using the finally purified enzyme solution prepared in Example 2[C] (1). The standard enzyme assay was performed as follows: the basal reaction mixture (total volume 150 μl) consisting of 33 mM potassium phosphate buffer (pH 7.0), 2.4 μg proteins, 0.091 mM DCIP, and water up to a total volume of 144 μl, and was incubated for 1 minute at room temperature (21° C.). […]. The decrease in A600 was monitored at 21° C. for 1 minute for EN4P dehydrogenase read with a UV-VIS recording spectrophotometer UV 2200. One unit of the enzyme activity was defined as the amount of enzyme reduced 1 nmol of DCIP for 1 minute under the action of EN4P dehydrogenase in the assay system described above.

A further assay relates to S. meliloti 16C18. Briefly: Growth of vitamin B6-deficient mutant on supplemented EMM plate. It counts as cell-based, Sinorhizobium meliloti. As to the method: These colonies were streaked on LBMC plates containing same antibiotics and incubated for 2 days at 30° C. The cells grown on the plates were inoculated on vitamin B6 assay plates (Table 1) containing Saccharomyces carlsbergensis ATCC 9080 as a vitamin B6 indicator strain. After incubation for 2 days at 30° C., one colony that had no halo of Saccharomyces carlsbergensis ATCC 9080 was obtained. The strain was named as S. meliloti 16C18. […] Further, S. meliloti 16C18 grew on EMM plate which was supplemented with 4 mg/L of 4-HT or 400 μg/L of PN.

A further assay concerns CFE of S. meliloti 16C18. As to the kind of experiment: EN4P dehydrogenase activity with an electron acceptor in cell-free extract (color change). As to conditions: 21° C. Type of assay: biochemical. As to the method:
(§1) The frozen cells were thawed slowly, suspended with 200 ml of 10 mM Tris-HCl buffer, pH 7.5. The suspension was passed through a French pressure cell at 800 kg/cm^2. The homogenate was centrifuged to remove the cell debris at 37,000×g for 90 minutes and then each 165 ml of supernatants was used as cell-free extract (CFE) and the protein contents in S. meliloti 16C18 and S. meliloti 16C18/pVK-pdxR were 5,030 and 5,042 mg, respectively.
(§2) EN4P dehydrogenase activity with NAD^+ or NADP^+ in CFE was determined by the formation of NADH or NADPH, which absorbs at 340 nm. Reaction mixture (150 μl) for assaying EN4P dehydrogenase activity contained 33 mM potassium phosphate buffer, pH 7.0, 2.3 mM EN4P, 1 mM NAD^+ or NADP^+, and CFE prepared from cells of S. meliloti 16C18 or S. meliloti 16C18/pVK-pdxR (each 0.16 mg protein). The increase of A340 was monitored at room temperature (21° C.) for 1 min in a UV-VIS recording spectrophotometer UV 2200 (Shimadzu Instruments, Inc., Kyoto, Japan), but the increase of A340 was not observed in enzyme reaction mixtures with any CFEs. Therefore, the both CFEs were determined to have no NAD^+ or NADP^+ dependent EN4P dehydrogenase activity. EN4P dehydrogenase activity with an electron acceptor in CFE was examined at room temperature (21° C.) by color change due to formation of reduced form from oxidized form of an electron acceptor. Reaction mixture (150 μl) contained 33 mM potassium phosphate buffer, pH 7.0, 2.3 mM EN4P, CFE (0.16 mg protein), and an electron acceptor such as 2,6-dichlorophenolindophenol (0.091 mM) (Wako Pure chemical Industries, Ltd., Osaka, Japan) (referred to as DCIP hereinafter) or ferricyanide (1.3 mM) (Wako Pure chemical Industries, Ltd., Osaka, Japan). […]

The test system of assay [1] is pdxR gene product in CFE of S. meliloti 16C18/pVK-pdxR. The description is as above. Type of assay: biochemical. The following applies: 21° C. The method, then:
as §1, §2

Assay [2] deals with purified PdxR treated with ammonium sulfate. Briefly: Effect of flavin on discoloration of DCIP in reaction mixture. Type of assay: biochemical, S. meliloti. The method, then:
To characterize a flavin binding to PdxR protein, ammonium sulfate fractionation was applied in the finally purified enzyme solution prepared in Example 2[C] (1) according to a method of Cammack [Biochem. J. 109:45-46 (1968)]. The enzyme solution (1 ml, containing 4.74 mg proteins) was dialyzed overnight against 1 liter of 80% (w/v) ammonium sulfate solution and its resultant precipitate in a dialysis membrane was collected by centrifugation at 34,800×g for 30 min, dissolved in 0.5 ml of 10 mM Tris-HCl, pH 7.5, and dialyzed overnight against 4 liters of the same buffer. The volume of dialyzed enzyme solution was brought to 1 ml with 10 mM Tris-HCl, pH 7.5.
The degree of discoloration was judged at 3 minutes.

Assay [3] relates to EN4P dehydrogenase in CFE of S. meliloti 16C18 or S. meliloti 16C18/pVK-pdxR. As to the kind of experiment: EN4P dehydrogenase activity with NAD+ or NADP+ in CFE (increase of A340). Type of assay: biochemical. The following applies: 1 mM coenzyme, 2.3 mM EN4P, any CFE, 21° C., 1 min. The method, then:
as §2

A further assay deals with EN4P dehydrogenase. As to the kind of experiment: Cytochrome c as electron acceptor of EN4P dehydrogenase (absorption spectra 400-600 nm). It counts as biochemical, S. meliloti. The following applies: 80 μM oxidized cytochrome c, 2.3 mM EN4P, CFE, 21° C., 2-20 min. The method, then:
Furthermore, possibility of cytochrome c instead of DCIP or ferricyanide in above-mentioned enzyme reaction system of EN4P dehydrogenase with an electron acceptor was examined by measuring change of absorption spectra in 400-600 nm spectral regions due to formation of reduced form from oxidized form of cytochrome c at room temperature (21° C.). Reaction mixture (150 μl) contained 33 mM potassium phosphate buffer, pH 7.0, 2.3 mM EN4P, 80 μM oxidized form of cytochrome c (from equine heart, Sigma Chemical Co.) as an electron acceptor, and CPE (0.16 mg protein). Absorption spectra of the reaction mixture of zero time and after 2, 5, 10, 15 and 20 min at room temperature (21° C.) were monitored with a UV-VIS recording spectrophotometer UV 2200. The absorption spectrum of zero time had only a broad peak at 525 nm, but spectra after 2 min appeared a new peak at 550 nm corresponding to reduced form of cytochrome c, and the absorption in the 550 nm region after 5, 10, 15 and 20 min was increased with time course.

The mark [4] stands for this setting: substrate 2.28 mM, 0.091 mM DCIP, pH 7.0, 21° C.

EN4P dehydrogenase, sequence (as listed by the source): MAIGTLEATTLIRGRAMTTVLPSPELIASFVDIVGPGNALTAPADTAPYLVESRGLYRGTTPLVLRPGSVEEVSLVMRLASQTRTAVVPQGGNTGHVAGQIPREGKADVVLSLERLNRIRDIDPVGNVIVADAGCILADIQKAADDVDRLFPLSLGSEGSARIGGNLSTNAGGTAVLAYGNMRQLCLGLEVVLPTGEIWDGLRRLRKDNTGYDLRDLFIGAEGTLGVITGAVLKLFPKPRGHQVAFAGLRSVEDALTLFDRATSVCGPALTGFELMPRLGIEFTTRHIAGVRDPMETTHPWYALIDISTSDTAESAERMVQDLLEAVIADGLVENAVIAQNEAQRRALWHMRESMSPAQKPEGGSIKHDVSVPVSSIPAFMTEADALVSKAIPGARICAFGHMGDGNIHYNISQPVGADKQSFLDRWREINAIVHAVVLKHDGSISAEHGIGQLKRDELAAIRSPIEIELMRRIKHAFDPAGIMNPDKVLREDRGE

As to `CC(O)C(=O)O` (racemic) [D,L-lactate], the “Activity (nmol/min/mg protein)” value in the assay on PdxR (pH 7) was 0 nmol/min/mg protein. Take `N[C@H](C(=O)O)[C@H](O)CO` [4-HT, 4-hydroxy-L-threonine]: the “Growth of S. meliloti 16C18 on supplemented EMM plate” value in the assay with S. meliloti 16C18 (EMM plate supplemented with 4 mg/L of 4-HT) is given as “grew”. As to `O=C(O)[C@H](O)CO` [D(+) glyceric acid], the “Activity (nmol/min/mg protein)” value with PdxR (setting [4]) is reported as 0 nmol/min/mg protein. On the same count and under the same terms, with `O=C(O)CC(C(=O)O)C(O)C(=O)O` [D,L-isocitrate] the figure was 0 nmol/min/mg protein.

Consider `O=C(O)[C@H](O)COP(=O)(O)O` [D-(−)-glyceric acid 3-phosphate], for which, in the assay with PdxR (setting [4]), the “Activity (nmol/min/mg protein)” value amounted to 0 nmol/min/mg protein.

Turning to `O=C(O)[C@H](O)[C@H](O)CO` [D-erythronate], the “Activity (nmol/min/mg protein)” value in the assay with PdxR (pH 7) was 0 nmol/min/mg protein. As to `O=C1C=CC(=Nc2cc(Cl)c(O)c(Cl)c2)C=C1` [DCIP, 2,6-dichlorophenolindophenol], the “Color change of electron acceptor in reaction mixture” value is “No change” in the assay with CFE of S. meliloti 16C18 (CFE of S. meliloti 16C18, + EN4P (2.3 mM)); “No change” with CFE of S. meliloti 16C18 (CFE of S. meliloti 16C18, − EN4P); “No change” in assay [1]. In the case of `O=C(O)[C@H](O)[C@H](O)COP(=O)(O)O` [EN4P, D-erythronate 4-phosphate], the “Oxidation by PdxR” value in the assay with PdxR (substrate 2.28 mM, 0.091 mM DCIP) was “oxidized”. Moreover, the “Activity (nmol/min/mg protein)” value with PdxR (setting [4]) stood at 946 nmol/min/mg protein. Regarding `Cc1cc2nc3c(=O)[nH]c(=O)nc-3n(C[C@H](O)[C@H](O)[C@H](O)COP(=O)(O)OP(=O)(O)OC[C@H]3O[C@@H](n4cnc5c(N)ncnc54)[C@H](O)[C@@H]3O)c2cc1C` [FAD, flavin adenine dinucleotide], the “Flavin concentration at which discoloration of DCIP occurred” value in assay [2] (judged at 3 minutes, 21° C.) was “greater than 0.014 μM”. Regarding `Cc1cc2nc3c(=O)[nH]c(=O)nc-3n(C[C@H](O)[C@H](O)[C@H](O)COP(=O)(O)O)c2cc1C` [FMN, flavin mononucleotide], the “Discoloration of DCIP” value in assay [2] (any FMN concentrations) is reported as “did not occur”.

On to `C[C@H](O)C(=O)O` [L-(+)-lactic acid], for which the “Activity (nmol/min/mg protein)” value in the assay on PdxR (setting [4]) worked out at 0 nmol/min/mg protein.

As to `O=C(O)C[C@H](O)C(=O)O` [L-malic acid], the “Activity (nmol/min/mg protein)” value in the assay on PdxR (setting [4]) was determined as 0 nmol/min/mg protein.

For `NC(=O)c1ccc[n+]([C@@H]2O[C@H](COP(=O)([O-])OP(=O)(O)OC[C@H]3O[C@@H](n4cnc5c(N)ncnc54)[C@H](OP(=O)(O)O)[C@@H]3O)[C@@H](O)[C@H]2O)c1` [NADP^+], the “Increase of A340 (formation of NADH or NADPH)” value in assay [3] is on record as “not observed”. On the same count and under the same terms, the result for `NC(=O)c1ccc[n+]([C@@H]2O[C@H](COP(=O)([O-])OP(=O)(O)OC[C@H]3O[C@@H](n4cnc5c(N)ncnc54)[C@H](O)[C@@H]3O)[C@@H](O)[C@H]2O)c1` [NAD^+] reads “not observed”. Turning to `Cc1ncc(CO)c(CO)c1O` [PN, pyridoxol], the “Growth of S. meliloti 16C18 on supplemented EMM plate” value in the assay with S. meliloti 16C18 (EMM plate supplemented with 400 μg/L of PN) is given as “grew”. For `O=C(O)CO` [glycolate], the “Activity (nmol/min/mg protein)” value in the assay with PdxR (setting [4]) worked out at 0 nmol/min/mg protein.

For `O=C(O)COP(=O)(O)O` [glycolic acid 2-phosphate], the “Activity (nmol/min/mg protein)” value in the assay on PdxR (setting [4]) is 0 nmol/min/mg protein. On the same count and under the same terms, with `O=CC(=O)O` [glyoxylate] the figure was 0 nmol/min/mg protein. For the molecule cytochrome c, the “Function as electron acceptor (reduced form peak at 550 nm)” value in the assay with EN4P dehydrogenase was “works as electron acceptor”.
